We go through 19 compounds from article PMC8037033, “Synthesis and Rational Design of New Appended 1,2,3-Triazole-uracil Ensembles as Promising Anti-Tumor Agents via In Silico VEGFR-2 Transferase Inhibition” (Molecules, 2021).

The term IC50 denotes the midpoint of a concentration-inhibition curve. In general, melting point refers to the temperature, or range, at which the solid turns liquid.

Data set [1] relates to HeLa tumor cells. Nature of the data set: MTT cytotoxicity assay, HeLa. Conditions: 72 h. In kind it is cell-based, human. As to the method:
(§1) The cell viability was measured by MTT colourimetric assay. The cell lines viz., HeLa (human cervical adenocarcinoma), HUH-7 (human hepatoma cancer cells) and NIH/3T3 (normal murine fibroblast cells) were supplemented with 10% fetal bovine serum and maintained in an environment of 5% CO2 at 37 °C temperature. Cell lines at a density of 2 × 10^3 cells/well were seeded onto 96 well plates for 16 h and maintained in DMEM culture media. Five different concentrations of synthesized ligands and 5-fluorouracil (except for normal cells) i.e., 0.1, 0.5, 1, 5 and 10 μM were treated against each cell line and incubated for 3 days at 37 °C [56]. Then, the solutions were discarded and an MTT reagent with a final concentration of 500 μg/mL was added to each well and plate and incubated for another 4–6 h. 200 μL of DMSO was added to solubilize purple precipitates (formazan product) and absorbance (optical density) was recorded at 570 nm on ELISA reader. IC50 values were calculated using dose-response data by applying the linear regression method. The experiments were done in triplicate for each concentration of ligand.
For orientation: Formazan colour is commonly taken as a measure of viable cells.

The test system of data set [2] is HUH-7 tumor cells. In words: MTT cytotoxicity assay, HUH-7. Conditions: Homo sapiens, 72 h. Type of data set: cell-based. As to the method: as §1
The test system of data set [3] is NIH/3T3 normal cells. Nature of the data set: MTT cytotoxicity assay, NIH/3T3 normal cells. Conditions: Mus musculus, NIH3T3, 72 h. In kind it is cell-based, murine. The method, then: as §1

With `O=c1[nH]cc(F)c(=O)[nH]1` [Compound 5-FU, 5-fluorouracil, reference compound], the IC50 worked out at 4.6 ± 0.2 µM in data set [1] (Homo sapiens, HeLa) and 30 ± 2.5 µM in data set [2].

`Cn1c(=O)cc(Cl)n(Cc2cn(-c3ccccc3)nn2)c1=O` [Compound 5a, 6-Chloro-3-methyl-1-((1-phenyl-1H-1,2,3-triazol-4-yl)methyl)pyrimidine-2,4(1H,3H)-dione] had a melting point of 120 to 121 °C. This compound also came in with a half-maximal inhibitory concentration (IC50) in data set [1] (Homo sapiens, HeLa) of 11.2 ± 0.1 µM. In addition, in data set [2], the 50% inhibitory concentration (IC50) is over 10 µM. In data set [3], this compound returned an IC50 of over 10 µM.

The compound `Cn1c(=O)cc(Cl)n(Cc2cn(-c3ccc(F)cc3)nn2)c1=O` [Compound 5b, 6-Chloro-1-((1-(4-fluorophenyl)-1H-1,2,3-triazol-4-yl)methyl)-3-methylpyrimidine-2,4(1H,3H)-dione] returned a melting point of 97 °C. The IC50 in data set [1] (Homo sapiens, HeLa) was over 10 µM. The IC50 in data set [2] was over 10 µM. The same compound registered an IC50 in data set [3] of over 10 µM.

As for `Cn1c(=O)cc(Cl)n(Cc2cn(-c3ccc(Cl)cc3)nn2)c1=O` [Compound 5c, 6-Chloro-1-((1-(4-chlorophenyl)-1H-1,2,3-triazol-4-yl)methyl)-3-methylpyrimidine-2,4(1H,3H)-dione], the melting point amounted to 100 °C. Moreover, the IC50 in data set [1] (Homo sapiens, HeLa) was over 10 µM. Besides, the IC50 in data set [2] was over 10 µM. This compound also returned an IC50 in data set [3] of over 10 µM.

In the case of `Cn1c(=O)cc(Cl)n(Cc2cn(-c3ccc([N+](=O)[O-])cc3)nn2)c1=O` [Compound 5d, 6-Chloro-3-methyl-1-((1-(4-nitrophenyl)-1H-1,2,3-triazol-4-yl)methyl)pyrimidine-2,4(1H,3H)-dione], the melting point lay in the range of 110 to 112 °C. In addition, in data set [1] (Homo sapiens, HeLa), the IC50 was over 10 µM. The compound further registered an IC50 in data set [2] of over 10 µM. In addition, the IC50 in data set [3] was over 10 µM.

`COc1ccc(-n2cc(Cn3c(Cl)cc(=O)n(C)c3=O)nn2)cc1` [Compound 5e, 6-Chloro-1-((1-(4-methoxyphenyl)-1H-1,2,3-triazol-4-yl)methyl)-3-methylpyrimidine-2,4-(1H,3H)-dione] showed a melting point of 145 to 148 °C. This compound showed an IC50 in data set [1] (Homo sapiens, HeLa) of over 10 µM. In addition, the IC50 in data set [2] is over 10 µM. In data set [3], this compound returned an IC50 of over 10 µM.

`Cn1c(=O)cc(Cl)n(Cc2cn(Cc3ccccc3)nn2)c1=O` [Compound 5f, 1-((1-Benzyl-1H-1,2,3-triazol-4-yl)methyl)-6-chloro-3-methylpyrimidine-2,4(1H,3H)-dione] came in with a melting point of 115 to 118 °C. The IC50 in data set [1] (Homo sapiens, HeLa) was over 10 µM. Moreover, 10.8 ± 0.5 µM corresponded to half-maximal inhibition in data set [2] (IC50). This compound came in with an IC50 in data set [3] of over 10 µM.

The compound `Cn1c(=O)cc(Cl)n(Cc2cn(Cc3ccc(Br)cc3)nn2)c1=O` [Compound 5g, 1-((1-(4-Bromobenzyl)-1H-1,2,3-triazol-4-yl)methyl)-6-chloro-3-methylpyrimidine-2,4(1H,3H)-dione] displayed a melting point of 138 to 140 °C. Also, the 50% inhibitory concentration (IC50) in data set [1] (Homo sapiens, HeLa) was over 10 µM. The compound further gave an IC50 in data set [2] of over 10 µM. The compound further showed an IC50 in data set [3] of over 10 µM.

Turning to `Cc1ccc(Cn2cc(Cn3c(Cl)cc(=O)n(C)c3=O)nn2)cc1` [Compound 5h, 6-Chloro-3-methyl-1-((1-(4-methylbenzyl)-1H-1,2,3-triazol-4-yl)methyl)pyrimidine-2,4(1H,3H)-dione], the 50% inhibitory concentration (IC50) in data set [1] (Homo sapiens, HeLa) was 4.5 ± 0.5 µM; in data set [2] it was 7.7 ± 0.3 µM; in data set [3] it was over 10 µM.

Regarding `COc1cccc(Cn2cc(Cn3c(Cl)cc(=O)n(C)c3=O)nn2)c1` [Compound 5i, 6-Chloro-1-((1-(3-methoxybenzyl)-1H-1,2,3-triazol-4-yl)methyl)-3-methylpyrimidine-2,4(1H,3H)-dione], the melting point lay in the range of 98 to 100 °C. The same compound came in with an IC50 in data set [1] of over 10 µM. Moreover, in data set [1] (Homo sapiens, HeLa), the 50% inhibitory concentration (IC50) amounted to 9 µM. Moreover, the IC50 in data set [2] was found to be 9 ± 0.8 µM. Besides, in data set [3], the IC50 is over 10 µM.

As for `Cn1c(=O)cc(Cl)n(Cc2cn(Cc3cccc(Oc4ccccc4)c3)nn2)c1=O` [Compound 5j, 6-Chloro-3-methyl-1-((1-(3-phenoxybenzyl)-1H-1,2,3-triazol-4-yl)methyl)pyrimidine-2,4(1H,3H)-dione], the melting point is 101 to 105 °C. The compound further returned an IC50 in data set [1] (Homo sapiens, HeLa) of 10 ± 1.5 µM. For the same compound, the IC50 in data set [2] was over 10 µM. The compound also gave an IC50 in data set [3] of over 10 µM.

For the compound `Cn1c(=O)cc(Cl)n(Cc2cn(Cc3nc(C4=Cc5ccccc5OC4)no3)nn2)c1=O` [Compound 5k, 1-((1-((3-(2H-Chromen-3-yl)-1,2,4-oxadiazol-5-yl)methyl)-1H-1,2,3-triazol-4-yl)methyl)-6-chloro-3-methylpyrimidine-2,4(1H,3H)-dione], the melting point was in the range of 125 to 128 °C. This compound showed an IC50 in data set [1] (Homo sapiens, HeLa) of over 10 µM. The compound also had an IC50 in data set [2] of over 10 µM. Further, the IC50 in data set [3] is over 10 µM.

The compound `COc1cccc2c1OCC(c1noc(Cn3cc(Cn4c(Cl)cc(=O)n(C)c4=O)nn3)n1)=C2` [Compound 5l, 6-Chloro-1-((1-((3-(8-methoxy-2H-chromen-3-yl)-1,2,4-oxadiazol-5-yl)methyl)-1H-1,2,3-triazol-4-yl)methyl)-3-methylpyrimidine-2,4(1H,3H)-dione] came in with a melting point of 122 to 125 °C. This compound yielded a 50% inhibitory concentration (IC50) in data set [1] (Homo sapiens, HeLa) of over 10 µM. The same compound showed an IC50 in data set [2] of over 10 µM. In data set [3], the IC50 is over 10 µM.

`Cc1cc(=O)oc2cc(OCCCCn3cc(Cn4c(Cl)cc(=O)n(C)c4=O)nn3)ccc12` [Compound 5m, 6-Chloro-3-methyl-1-((1-(4-((4-methyl-2-oxo-2H-chromen-7-yl)oxy)butyl)-1H-1,2,3-triazol-4-yl)methyl)pyrimidine-2,4(1H,3H)-dione] registered a melting point of 145 to 148 °C. The same compound had an IC50 in data set [1] (Homo sapiens, HeLa) of over 10 µM. The IC50 in data set [2] is over 10 µM. The IC50 in data set [3] is over 10 µM.

With `Cn1c(=O)cc(Cl)n(Cc2cn(CCCN3C(=O)c4cccc5cccc(c45)C3=O)nn2)c1=O` [Compound 5n, 2-(3-(4-((6-Chloro-3-methyl-2,4-dioxo-3,4-dihydropyrimidin-1(2H)-yl)methyl)-1H-1,2,3-triazol-1-yl)propyl)-1H-benzo[de]isoquinoline-1,3(2H)-dione], the melting point was in the range of 96 to 98 °C. Also, half-maximal inhibition in data set [1] (Homo sapiens, HeLa) (IC50) required 9.6 ± 1.2 µM. The same compound displayed an IC50 in data set [2] of over 10 µM. In data set [3], this compound yielded an IC50 of over 10 µM.

As for `CCCCCCn1cc(Cn2c(Cl)cc(=O)n(C)c2=O)nn1` [Compound 5o, 6-Chloro-1-((1-hexyl-1H-1,2,3-triazol-4-yl)methyl)-3-methylpyrimidine-2,4(1H,3H)-dione], the melting point is 100 to 102 °C. The same compound yielded a 50% inhibitory concentration (IC50) in data set [1] (Homo sapiens, HeLa) of over 10 µM. The compound also showed an IC50 in data set [2] of over 10 µM. The compound further had an IC50 in data set [3] of over 10 µM.

As to `CCCCCCCCn1cc(Cn2c(Cl)cc(=O)n(C)c2=O)nn1` [Compound 5p, 6-Chloro-3-methyl-1-((1-octyl-1H-1,2,3-triazol-4-yl)methyl)pyrimidine-2,4(1H,3H)-dione], the IC50 in data set [1] (Homo sapiens, HeLa) was over 10 µM; in data set [2], over 10 µM; in data set [3], over 10 µM.

`Cn1c(=O)cc(Cl)n(Cc2cn(CCCCn3cc(Cn4c(Cl)cc(=O)n(C)c4=O)nn3)nn2)c1=O` [Compound 5q, 1,1’-((Butane-1,4-diylbis(1H-1,2,3-triazole-1,4-diyl))bis(methylene))bis(6-chloro-3-methylpyrimidine-2,4(1H,3H)-dione)] showed a melting point of 115 to 118 °C. Further, the IC50 in data set [1] (Homo sapiens, HeLa) was over 10 µM. The concentration for half-maximal inhibition (IC50) in data set [2] was over 10 µM. In data set [3], this compound had an IC50 of over 10 µM.

Take `Cn1c(=O)cc(Cl)n(Cc2cn(CCCCCn3cc(Cn4c(Cl)cc(=O)n(C)c4=O)nn3)nn2)c1=O` [Compound 5r, 1,1’-((Pentane-1,5-diylbis(1H-1,2,3-triazole-1,4-diyl))bis(methylene))bis(6-chloro-3-methylpyrimidine-2,4(1H,3H)-dione)]: the melting point lay in the range of 114 to 115 °C. Half-maximal inhibition in data set [1] (Homo sapiens, HeLa) (IC50) required 9.6 ± 0.9 µM. In data set [2], the IC50 was over 10 µM. This compound also yielded an IC50 in data set [3] of over 10 µM.
